Earlier results as cited in PMC12824232 (Nature Communications, 2025).

Legend:
[1] = test system: ER+/HER2− advanced breast cancer; conditions: patients with ESR1 mutations, phase 3 trial
[2] = test system: patients with ER+/HER2− advanced breast cancer; conditions: phase 2 trial

patients with Grade 3/4 TRAEs [2] [%] | Structure (SMILES) | median PFS [1] [months]
 | CCNCCc1ccc(CN(CC)c2cc(OC)ccc2[C@@H]2CCc3cc(O)ccc3C2)cc1 [elacestrant] | 3.8
6 | O=C1CC[C@H](N2Cc3cc(N4CCN(CC5CCN(c6ccc([C@@H]7c8ccc(O)cc8CC[C@@H]7c7ccccc7)cc6)CC5)CC4)ccc3C2=O)C(=O)N1 [vepdegestrant] | 
